Measurements: patent US9751875B2, “Quinine compounds, and optical isomers, preparation method and medical use thereof” (BEIJING FSWELCOME TECHNOLOGY DEVELOPMENT CO., LTD., priority 2013, dated 2017)
Where two headings read alike, the source gives them in different places.

Assays:
[1] = system: tracheal smooth muscle from guinea pigs (contraction induced by 3 × 10^−6 mol/L of CCh); assay: Antagonism in vitro of contraction of isolated tracheal smooth muscle from guinea pigs induced by carbachol (CCh); assay type: cell-based, guinea pig
From the text: Preparation of the Isolated Tracheal Smooth Muscle Specimen from a Guinea Pig:
After a guinea pig was narcotized with urethane, the trachea between the throat and carina of the guinea pig was taken out rapidly, and placed in the Krebs-Henseleit (K-H) solution (composition (g/L): NaCl 6.92, KCl 0.35, CaCl2 0.28, KH2PO4 0.16, MgSO4.7H2O 0.4568, NaHCO3 2.1, Glucose 2.0) with a mixture gas of 5% CO2 and 95% O2 purged. After loose connective tissues and fats around the trachea were separated, the trachea was cut into trachea pieces having a width of about 3 mm and a length of 20 mm by a surgical scissor, with both ends of the trachea piece ligated with 4˜0 silk suture, and then placed into a thermostatic bath containing 5 ml of K—H solution (pH 7.4) at 37° C., with the mixture gas of 5% CO2 and 95% O2 continuously purged. A muscle tension transducer was connected to the upper end so as to apply 1.0 g of resting tension to the specimen, the change of the tension was recorded, the culture solution was replaced every 20 min, and the test was started after being balanced for 60 min.
Administration method: After the trachea piece was stabilized, 3×10^−6 mol/L of CCh was added into a bath, and after the contractile tension of the trachea piece reached a peak level, the example compounds, ipratropium bromide and tiotropium bromide were added into a Magnus bath by a cumulative dosing regimen with a dosage of 10^−9˜10^−5 mol, respectively, and the diastolic condition of the trachea piece was observed: if no response occurred (below the threshold concentration), a next dosage was continued to be added in sequence; if response occurred, after it reached a diastolic plateau, a next dosage was further added. The above operation was repeated until the contractile curve reached the minimum value. Finally, 10^−6 mol/L of isoprenaline was added so that the maximum relaxation would be reached and the curve was recorded.
Statistical approach: The result was expressed as mean ±standard deviation, and counted by Sigma Stat statistical package. The data was analyzed by using variance analysis, the comparison among means of a plurality of specimen was performed by using Student-Newman-Keuls(SNK) test; statistical significant level α=0.05 (bilateral).
Compounds shown in Table 5 were further prepared according to the present invention, and their IC50 […] of resistance to the contraction of tracheal smooth muscle from guinea pigs induced by a concentration of 3×10^−6 mol/L of CCh was determined.

[2] = system: tracheal smooth muscle from guinea pigs (contraction induced by 3 × 10^−6 mol/L of CCh); assay: as above; assay type: cell-based, guinea pig; remark: listed apart in the source
[3] = read-out: IC50 (μM), antagonism in vitro against the contraction of the tracheal smooth muscle induced by CCh, 3 × 10^−6 mol/L of CCh, cumulative dosing
[4] = Cavia porcellus, read-out: IC50 (μM), antagonism in vitro against the contraction of the tracheal smooth muscle induced by CCh, 3 × 10^−6 mol/L of CCh, cumulative dosing
[5] = Cavia porcellus, 3 × 10^−6 mol/L of CCh, cumulative dosing, read-out: IC50 (μM), antagonism in vitro against the contraction of the tracheal smooth muscle induced by CCh
[6] = 3 × 10^−6 mol/L of CCh, cumulative dosing, read-out: IC50 (μM), antagonism in vitro against the contraction of the tracheal smooth muscle induced by CCh
[7] = Cavia porcellus, read-out: Resistance to the contraction of smooth muscle from guinea pigs in vitro, IC50 (μM), 3 × 10^−6 mol/L of CCh, Table 5
[8] = Cavia porcellus, 3 × 10^−6 mol/L of CCh, Table 5, read-out: Resistance to the contraction of smooth muscle from guinea pigs in vitro, IC50

SMILES | Onset time [2] | Time for eliminating inhibition effect (min) [2] | IC50 [1, 7] | other results
OC(CO[C@H]1C[N+]2(CCCOc3ccccc3)CCC1CC2)(c1ccccc1)C1CCCC1.[Br-] (stereo partly drawn) [Example 2, (2S,3S)-3-[(2-cyclopentyl-2-hydroxyl-2-phenyl)ethoxyl]-1-(3-phenoxypropyl)-1-azabicyclo[2,2,2]octane bromide] | 6.53 min | more than 300 min | – | IC50 [1, 3]: 2.85 µM
OC(CO[C@@H]1C[N+]2(CCCOc3ccccc3)CCC1CC2)(c1ccccc1)C1CCCC1.[Br-] (stereo partly drawn) [Example 3, (2S,3R)-3-[(2-cyclopentyl-2-hydroxyl-2-phenyl)ethoxyl]-1-(3-phenoxypropyl)-1-azabicyclo[2,2,2]octane bromide] | 6.54 min | more than 300 min | – | IC50 [1, 3]: 0.852 µM
OC(CO[C@H]1C[N+]2(CCCOc3ccccc3)CCC1CC2)(c1ccccc1)C1CCCCC1.[Br-] (stereo partly drawn) [Example 7, (2R,3S)-3-[(2-cyclohexyl-2-hydroxyl-2-phenyl)ethoxyl]-1-(3-phenoxypropyl)-1-azabicyclo[2,2,2]octane bromide] | 6.56 min | more than 300 min | – | IC50 [1, 4]: 0.791 µM
O[C@](CO[C@H]1C[N+]2(CCCOc3ccccc3)CCC1CC2)(c1ccccc1)C1CCCCC1.[Br-] [Example 8, (2S,3S)-3-[(2-cyclohexyl-2-hydroxyl-2-phenyl)ethoxyl]-1-(3-phenoxypropyl)-1-azabicyclo[2,2,2]octane bromide] | 6.72 min | more than 300 min | – | IC50 [1, 4]: 2.35 µM
O[C@](COC1C[N+]2(CCCOc3ccccc3)CCC1CC2)(c1ccccc1)C1CCCCC1.[Br-] (stereo partly drawn) [Example 9, (2S,3R)-3-[(2-cyclohexyl-2-hydroxyl-2-phenyl)ethoxyl]-1-(3-phenoxypropyl)-1-azabicyclo[2,2,2]octane bromide] | 6.13 min | more than 300 min | – | IC50 [1, 4]: 0.758 µM
OC(CO[C@H]1C[N+]2(CCCOc3ccccc3)CCC1CC2)(c1ccccc1)C1CCCCC1 (stereo partly drawn) [Example 11, (2R,3S),(2S,3R) Configuration of 3-[(2-cyclohexyl-2-hydroxyl-2-phenyl)ethoxyl]-1-(3-phenoxypropyl)-1-azabicyclo[2,2,2]octane bromide] | 6.77 min | more than 300 min | – | IC50 [1, 5]: 1.36 µM
OC(CO[C@H]1C[N+]2(CCCOc3ccccc3)CCC1CC2)(c1ccccc1)C1CCC1 (stereo partly drawn) [Example 13, (2R,3S)-3-[(2-cyclobutyl-2-hydroxyl-2-phenyl)ethoxyl]-1-(3-phenoxypropyl)-1-azabicyclo[2,2,2]octane bromide] | 7.25 min | more than 300 min | – | IC50 [1, 5]: 0.917 µM
OC(CO[C@@H]1C[N+]2(CCCOc3ccccc3)CCC1CC2)(c1ccccc1)C1CCC1.[Br-] (stereo partly drawn) [Example 15, (2S,3R)-3-[(2-cyclobutyl-2-hydroxyl-2-phenyl)ethoxyl]-1-(3-phenoxypropyl)-1-azabicyclo[2,2,2]octane bromide] | 6.29 min | more than 300 min | – | IC50 [1, 3]: 1.52 µM
OC(CO[C@H]1C[N+]2(CCCOc3ccccc3)CCC1CC2)(c1ccccc1)C1CCC1 (stereo partly drawn) [Example 17, (2R,3S),(2S,3R)-3-[(2-cyclobutyl-2-hydroxyl-2-phenyl)ethoxyl]-1-(3-phenoxypropyl)-1-azabicyclo[2,2,2]octane bromide] | 7.05 min | more than 300 min | – | IC50 [1, 6]: 1.57 µM
OC(CO[C@H]1C[N+]2(CCCOc3ccccc3)CCC1CC2)(c1ccccc1)C1CCC1 (stereo partly drawn) [Example 18, (2R,3R),(2S,3S)-3-[(2-cyclobutyl-2-hydroxyl-2-phenyl)ethoxyl]-1-(3-phenoxypropyl)-1-azabicyclo[2,2,2]octane bromide] | 6.92 min | more than 300 min | – | IC50 [1, 6]: 0.156 µM
OC(CO[C@H]1C[N+]2(CCCOc3ccccc3)CCC1CC2)(c1ccccc1)C1CC1 (stereo partly drawn) [Example 19, (2R,3S)-3-[(2-cyclopropyl-2-hydroxyl-2-phenyl)ethoxyl]-1-(3-phenoxypropyl)-1-azabicyclo[2,2,2]octane bromide] | 6.68 min | more than 300 min | – | IC50 [1, 5]: 1.76 µM
OC(CO[C@H]1C[N+]2(CCCOc3ccccc3)CCC1CC2)(c1ccccc1)C1CC1.[Br-] (stereo partly drawn) [Example 20, (2S,3S)-3-[(2-cyclopropyl-2-hydroxyl-2-phenyl)ethoxyl]-1-(3-phenoxypropyl)-1-azabicyclo[2,2,2]octane bromide] | 6.32 min | more than 300 min | – | IC50 [1, 3]: 2.35 µM
COc1cccc2cccc(C(O)(COC3C[N+]4(CCCOc5ccccc5)CCC3CC4)C3CCCC3)c12 (stereo not drawn) [Example 34] | – | – | 0.654 µM | –
OC(CCOC1C[N+]2(CCCOc3ccccc3)CCC1CC2)(c1ccccc1)C1CCCC1 (stereo not drawn) [Example 35] | – | – | 0.102 µM | –
CC(=O)OC(COC1C[N+]2(CCCOc3ccccc3)CCC1CC2)(c1ccccc1)C1CCCC1 (stereo not drawn) [Example 36] | – | – | 0.068 µM | –
OC(COC1C[N+]2(CCCOc3ccccc3)CCC1CC2)(c1cccs1)C1CCCC1 (stereo not drawn) [Example 37] | – | – | 0.0783 µM | –
OC(CCCCCCCOC1C[N+]2(CCCOc3ccccc3)CCC1CC2)(c1ccsc1)C1CCCC1 (stereo not drawn) [Example 38] | – | – | 0.0317 µM | –

SMILES | Onset time [2] | Time for eliminating inhibition effect (min) [2] | IC50 [1, 7] | other results
COC1C[N+]2(CCCOc3ccccc3)CCC1C(OCC(O)(c1ccccc1)C1CCCC1)C2 (stereo not drawn) [Example 39] | – | – | 0.045 µM | –
ClC(COC1C[N+]2(CCCOc3ccccc3)CCC1CC2)(c1ccccc1)C1CCCC1 (stereo not drawn) [Example 40] | – | – | 0.805 µM | –
Cc1ccc(OCCC[N+]23CCC(CC2)C(OCC(O)(c2ccccc2)C2CCCC2)C3)cc1 (stereo not drawn) [Example 41] | – | – | 0.0562 µM | –
COc1ccc(OCCC[N+]23CCC(CC2)C(OCC(O)(c2ccccc2)C2CCCC2)C3)cc1 (stereo not drawn) [Example 42] | – | – | 0.078 µM | –
CC(Oc1ccccc1)[N+]12CCC(CC1)C(OCC(O)(c1ccccc1)C1CCCC1)C2 (stereo not drawn) [Example 43] | – | – | 0.0615 µM | –
CC(C)(Oc1ccccc1)[N+]12CCC(CC1)C(OCC(O)(c1ccccc1)C1CCCC1)C2 (stereo not drawn) [Example 44] | – | – | 0.147 µM | –
OC(COC1C[N+]2(C3(COc4ccccc4)CCCC3)CCC1CC2)(c1ccccc1)C1CCCC1 (stereo not drawn) [Example 45] | – | – | 0.512 µM | –
OC(COC1C[N+]2(C3(COc4ccccc4)C=CC=C3)CCC1CC2)(c1ccccc1)C1CCCC1 (stereo not drawn) [Example 46] | – | – | 1.23 µM | –
CCCCC(O)(COC1C[N+]2(CCCOc3ccccc3)CCC1CC2)c1ccccc1 (stereo not drawn) [Example 47] | – | – | 0.506 µM | –
OC(COC1C[N+]2(CCCOc3ccccc3)CCC1CC2)(c1ccccc1)C1CCCC1 (stereo not drawn) [Example 48] | – | – | – | IC50 ([1]; read-out: Resistance to the contraction of smooth muscle from guinea pigs in vitro, IC50, 3 × 10^−6 mol/L of CCh, Table 5): 1.18 µM
CC1CCCC1C(O)(COC1C[N+]2(CCCOc3ccccc3)CCC1CC2)c1ccccc1 (stereo not drawn) [Example 49] | – | – | 0.045 µM | –
CC1=CC=CC1C(O)(COC1C[N+]2(CCCOc3ccccc3)CCC1CC2)c1ccccc1 (stereo not drawn) [Example 50] | – | – | 0.413 µM | –
COC1C(OCC(O)(c2ccccc2)C2CCCC2)C2CC[N+]1(CCCOc1ccccc1)CC2 (stereo not drawn) [Example 52] | – | – | 0.513 µM | –
OC(COC1C[N+]2(CCCOc3ccccc3)CCC1CC2)(CC1CCCC1)c1ccccc1 (stereo not drawn) [Example 53] | – | – | 2.17 µM | –
OC(COC1C[N+]2(CCCOc3ccccc3)CCC1CC2)(c1ccccc1)C1CCCC1 (stereo not drawn) [Example 54] | – | – | – | IC50 [1, 8]: 0.0376 µM
OC(COC1C[N+]2(CCCOc3ccccc3)CCC1CC2)(c1ccccc1)C1CCCC1 (stereo not drawn) [Example 55] | – | – | – | IC50 [1, 8]: 0.0359 µM
